Laboratory results published in US20260109690A1, “HDAC6 INHIBITORS AND METHOD OF THEIR USE” (Baerenkraft Therapeutics, LLC., priority 2024, published 2026).

Tested on: B6SJL.SOD1-G93A transgenic mouse model of amyotrophic lateral sclerosis
Test: Pre-clinical ALS mouse model efficacy: motor behavior
Assay type: in vivo, mice
Conditions: both doses (G3 and G4), week 10 until week 16
Description: Effect of test compound I-8 in Cyagen, male B6SJL.SOD1-G93A 9-week-old transgenic mouse model of amyotrophic lateral sclerosis
Compound I-8 effect was evaluated in Cyagen, Male B6SJL.SOD1-G93A 9-week-old mice, an animal model of amyotrophic lateral sclerosis.

CC1CN(Cc2ccc(Nc3nccc(-c4ccc(C(=O)NO)cc4)n3)cc2F)CCO1 (racemic) [Compound I-8, 4-(2-((3-fluoro-4-((2-methylmorpholino)methyl)phenyl)amino)pyrimidin-4-yl)-N-hydroxybenzamide]
motor behavior compared to disease control group: Improvement was observed in motor behavior
